US20030100479A1, “Gene polymorphisms and response to treatment” (priority 2001, published 2003)
Entries after “also recorded” stand apart in the source; their conditions may differ.

Key:
[1] = Clinical trial of GW320659: change in Food Craving Inventory (Total) score week 0 to week 24, by genotype; type: in vivo, human; settings: for Change in Food Craving Inventory, mean response: 10 mg+15 mg; for Placebo adjusted mean change in Food Craving Inventory (Total) score: 15 mg dose group; for Mean change in Food Craving Inventory (Total) score: data not shown
From the text: (§1) Using genotyping methods as are well known in the art, genetic data were obtained from approximately 200 of more than 500 human subjects enrolled in a dose-ranging efficacy and safety study of GW320659 for weight loss (main study group; a randomized, double-blind, placebo controlled, dose-ranging clinical trial); GW320659 was used in conjunction with a mildly hypocaloric diet and brief weight management guidance. Subjects were between the ages of 18-65 years, with a Body Mass Index (BMI) of 30-40, and were not on any psychotropic medications or other anti-obesity medications. Subjects were randomized into one of five treatment groups: placebo or GW320659 at 2.5 mg/day, 5 mg/day, 10 mg/day, or 15 mg/day (oral administration). In the main study group, for the GW320659 15 mg/day dosage, average weight loss was approximately 3.7 kg (108 subjects; data not shown).
(§2) Subjects were assessed for various parameters, including absolute change in body weight from week 0 to week 24 of the study; supine heart rate, diastolic blood pressure and systolic blood pressure at multiple predetermined time-points across the study; and change in Food Craving Inventory (Total) score from week 0 to week 24.
The endpoint of Change in Food Craving Inventory (total score) was analyzed with the same methods.
The Food Craving Inventory used was a validated scale developed at Louisiana State University. It is a scale of 37 items designed to measure food cravings for specific foods. For each item the subject is asked “Over the past month, how often have you experienced a craving for the food?”. Possible responses were Never, Rarely, Sometimes, Often, and Always. These responses were converted to ordinal scores (1, 2, 3, 4, 5). The mean total score was computed for each patient. Change from baseline mean scores were analyzed. Possible range for this measure was −4 to 4; a negative number indicates a decrease in cravings.
The change in Food Craving Inventory was assessed by grouping low dose treatments together (2.5+5 mg treatments) and higher dose treatments together (10 mg+15 mg), and comparing to placebo, using a p-value threshold set at […] (the minimum level necessary to get further automatic splits). The software then determined the remaining splits for the 10 mg+15 mg group. The splits found in the 10+15 mg group were then manually duplicated for the lower dose group (2.5+5 mg) for comparison purposes. As an example, for the 10 mg+15 mg treatment doses, the mean response for subjects with genotype 1, 2 or 2,2 for the NET1 C120A genetic marker and a baseline weight greater than 86.6 kg, was −0.55 (std=0.37 n=49). FIG. 11. For all subjects not in the defined subgroup, mean response was −0.02 (std=0.60, n=25).

[2] = Clinical trial of GW320659: change in supine heart rate (time-adjusted AUC), by genotype; type: in vivo, human; parameters: Change in Heart Rate, Mean / Heart Rate (mean time adusted change): unit not given here
From the text: as §1, §2
Analyses of changes in cardiovascular endpoints (HR, SBP, DBP, all measured in supine subjects) were conducted individually for each of the polymorphic sites, and analyzed as follows. Vital sign assessments at all post-baseline visits were analyzed utilizing a repeated measures (mixed) ANOVA model. Genotype by treatment interactions were assessed. The following model was used.
If the treatment by time interaction was non-significant, the corresponding term was planned to be removed from the model, prior to assessing treatment by genotype interaction. Subsequently, this term was removed for all vital signs analyses. In addition, vital signs data was analyzed utilizing a time-weighted area under the curve (adjusted for baseline) analysis. Model #2 (used for the efficacy analyses) was employed for these analyses.
The multilocus genotypes from each individual were used to enumerate all possible haplotypes. These haplotypes were assigned starting frequencies. The haplotype frequencies were updated with frequencies calculated from all the possible haplotypes from each individual in the sample. This continued until the frequencies were constant from iteration to iteration.
Regression-based models were used to relate inferred haplotype probabilities for each individual with the continuous response.
Supine heart rate (HR), supine systolic blood pressure (SBP) and supine diastolic blood pressure (DBP) were assessed at various fixed intervals across the duration of the study. Summaries and analyses were conducted on the “area under the curve” (AUC) values (adjusted for time on study and baseline). All reported p-values in this section refer to AUC analyses, using Model No.2 as described above.
As in Food Craving Inventory (Example 6, above), manual splits were created by treatment dose (placebo, 2.5+5 mg, and 10+15 mg). The p-value threshold was then set at 0.10 (the minimum level necessary to get further automatic splits). The software then determined the remaining splits for the 10+15 mg group. The splits found in the 10+15 mg group were then manually duplicated for the lower dose groups (for comparison purposes).

[3] = subgroup 2/2 NET1T342C and/or 2/2 NET1G155A and/or 2/2 NR1G6435A, 10 mg/day+15 mg/day, 26 subjects

In the case of C[C@@H]1CO[C@@](O)(c2cc(F)cc(F)c2)[C@H](C)N1.Cl [GW320659, (2S,3S,5R)-2-(3,5-difluorophenyl)-3,5-dimethyl-2-morpholinol], the “Change in Food Craving Inventory, mean response” value ([1]; NET1 C120A genotype 1,2 or 2,2 and baseline weight greater than 86.6 kg, std=0.37 n=49) is reported as −0.55, the “Change in Food Craving Inventory, mean response” value ([1]; all subjects not in the defined subgroup, std=0.60, n=25) is reported as −0.02 and the “Placebo adjusted mean change in Food Craving Inventory (Total) score” value (from here on “Placebo adjusted mean change”) ([1]; 5HTT G160A 2,2 genotype, scale range −4 to 4) is reported as 0.7. For the same molecule, the “Mean change in Food Craving Inventory (Total) score” value ([1]; DRD2 C12121T 1,1 genotype, 15 mg dose) was −0.7, the “Mean change in Food Craving Inventory (Total) score” value ([1]; DRD2 C20236T 2,2 genotype, 15 mg dose) was −0.7 and the “Placebo adjusted mean change” value ([1]; NET1 C120A genotype 1,1) was 0.2. For the same molecule, the “Placebo adjusted mean change” value ([1]; NET1 C120A genotype 1,2) was −0.4, the “Placebo adjusted mean change” value ([1]; NET1 C120A genotype 2,2) was −0.4 and the “Mean change in Food Craving Inventory (Total) score” value ([1]; NET1 T342C 2,2 genotype, 10 mg dose) was −0.7. For the same molecule, the “Mean change in Food Craving Inventory (Total)” value [1, 3] was −0.528, the “Increase in heart rate compared to subjects with alternate genotypes” value ([2]; DRD2 C12121T (2′,2) and MAOBG644A (1,1) genotypes, 10 mg/day or 15 mg/day) was “larger increase in heart rate” and the “Changes in heart rate compared to subjects with alternate genotypes” value ([2]; NET1 T342C (2,2) and without DRD2 C12121T (2,2), 10 mg/day or 15 mg/day) was “decreased changes in heart rate and blood pressure; also recorded: comparatively small changes in HR, SBP and DBP”. The “Change in Heart Rate, Mean” value ([2]; haplotype 1,1 5HTTC867T 5HTTT3287C, All Ethnicities, 10 and 15 mg combined (Table 6)) was 3.5075, the “Change in Heart Rate, Mean” value ([2]; haplotype 1,1 5HTTC867T 5HTTT3287C, Caucasians, 10 and 15 mg combined (Table 7)) was 3.811 and the “Change in Heart Rate, Mean” value ([2]; haplotype 1,1 5HTTDel-Ins 5HTTC867T, All Ethnicities, 10 and 15 mg combined (Table 6)) was 4.2. The “Change in Heart Rate, Mean” value ([2]; haplotype 1,1 5HTTDel-Ins 5HTTC867T, Caucasians, 10 and 15 mg combined (Table 7)) was 4.077, the “Change in Heart Rate, Mean” value ([2]; haplotype 1,1,1 5HTTDel-Ins 5HTTC867T 5HTT3287C, All Ethnicities, 10 and 15 mg combined (Table 6)) was 5.48 and the “Change in Heart Rate, Mean” value ([2]; haplotype 1,1,1 5HTTDel-Ins 5HTTC867T 5HTT3287C, Caucasians, 10 and 15 mg combined (Table 7)) was 5.69. The “Change in Heart Rate, Mean” value ([2]; haplotype 1,1,2 5HTTDel-Ins 5HTTC867T 5HTT3287C, All Ethnicities, 10 and 15 mg combined (Table 6)) was −0.6849, the “Change in Heart Rate, Mean” value ([2]; haplotype 1,1,2 5HTTDel-Ins 5HTTC867T 5HTT3287C, Caucasians, 10 and 15 mg combined (Table 7)) was −0.8345 and the “Change in Heart Rate, Mean” value ([2]; haplotype 1,2 5HTTC867T 5HTTT3287C, All Ethnicities, 10 and 15 mg combined (Table 6)) was −0.6851. For the same molecule, the “Change in Heart Rate, Mean” value ([2]; haplotype 1,2 5HTTC867T 5HTTT3287C, Caucasians, 10 and 15 mg combined (Table 7)) was −0.8347, the “Change in Heart Rate, Mean” value ([2]; haplotype 1,2 5HTTDel-Ins 5HTTC867T, All Ethnicities, 10 and 15 mg combined (Table 6)) was 6.424 and the “Change in Heart Rate, Mean” value ([2]; haplotype 1,2 5HTTDel-Ins 5HTTC867T, Caucasians, 10 and 15 mg combined (Table 7)) was 6.807. The “Change in Heart Rate, Mean” value ([2]; haplotype 1,2,1 5HTTDel-Ins 5HTTC867T 5HTT3287C, All Ethnicities, 10 and 15 mg combined (Table 6)) was 6.404, the “Change in Heart Rate, Mean” value ([2]; haplotype 1,2,1 5HTTDel-Ins 5HTTC867T 5HTT3287C, Caucasians, 10 and 15 mg combined (Table 7)) was 6.808 and the “Change in Heart Rate, Mean” value ([2]; haplotype 2,1 5HTTC867T 5HTTT3287C, All Ethnicities, 10 and 15 mg combined (Table 6)) was 5.565. For the same molecule, the “Change in Heart Rate, Mean” value ([2]; haplotype 2,1 5HTTC867T 5HTTT3287C, Caucasians, 10 and 15 mg combined (Table 7)) was 5.827, the “Change in Heart Rate, Mean” value ([2]; haplotype 2,1 5HTTDel-Ins 5HTTC867T, All Ethnicities, 10 and 15 mg combined (Table 6)) was 2.183 and the “Change in Heart Rate, Mean” value ([2]; haplotype 2,1 5HTTDel-Ins 5HTTC867T, Caucasians, 10 and 15 mg combined (Table 7)) was 3.034. The “Change in Heart Rate, Mean” value ([2]; haplotype 2,1,1 5HTTDel-Ins 5HTTC867T 5HTT3287C, All Ethnicities, 10 and 15 mg combined (Table 6)) was 2.256, the “Change in Heart Rate, Mean” value ([2]; haplotype 2,1,1 5HTTDel-Ins 5HTTC867T 5HTT3287C, Caucasians, 10 and 15 mg combined (Table 7)) was 3.11 and the “Change in Heart Rate, Mean” value ([2]; haplotype 2,2 5HTTDel-Ins 5HTTC867T, All Ethnicities, 10 and 15 mg combined (Table 6)) was 4.879. For the same molecule, the “Change in Heart Rate, Mean” value ([2]; haplotype 2,2 5HTTDel-Ins 5HTTC867T, Caucasians, 10 and 15 mg combined (Table 7)) was 5.085, the “Change in Heart Rate, Mean” value ([2]; haplotype 2,2,1 5HTTDel-Ins 5HTTC867T 5HTT3287C, All Ethnicities, 10 and 15 mg combined (Table 6)) was 4.782 and the “Change in Heart Rate, Mean” value ([2]; haplotype 2,2,1 5HTTDel-Ins 5HTTC867T 5HTT3287C, Caucasians, 10 and 15 mg combined (Table 7)) was 4.92. For the same molecule, the “Mean rise in HR” value ([2]; subgroup 2,2 for NET1T342C and/or NET1G155A and/or NR1G6435A, 10 mg and 15 mg combined) was 4.7 bpm, the “Overall mean time-adjusted change in Heart Rate, mean rise” value ([2]; subgroup 2,2 for NET1T342C and/or NET1G155A and/or NR1G6435A, 10 mg/day+15 mg/day, not significantly different from placebo) was 4.7 beats per minute and the “Heart Rate (mean time adusted change)” value [2, 3] was 4.666. For the same molecule, the “Mean change in HR” value ([2]; subgroup DRD2 C12121T (1,1) and MAOB G644A (1,1), 10 mg and 15 mg dosing) was 13 bpm and the “Overall mean time-adjusted change in Heart Rate, mean increase” value ([2]; subgroup DRD2C12121T=2,2 and MAOBG644A=1,1, 10 mg/day+15 mg/day) was 13 beats per minute.
